{"source": "patent US20170121295A1", "about": "“POLYCYCLIC LPA1 ANTAGONIST AND USES THEREOF” (AMIRA PHARMACEUTICALS, INC., priority 2010, published 2017)", "key": {"[1]": {"assay": "Metabolites generated in vivo (rat bile and urine, rat and dog plasma)", "description": "Compound 2 (2 mg/kg) was administered intravenously (IV) to fasted rats as a solution in 0.9% saline via a bolus injection into the jugular vein (2 mg/mL; […]).\nRats with surgically placed bile duct and jugular vein cannula were purchased from Charles River Laboratories and allowed to acclimate for 2 days. Compound 2 was intravenously dosed (2 mg/kg) to three rats as a solution in 0.9% saline (2 mg/mL; 1 mL/kg). Bile samples were collected at time-points 0-2, 2-5 and 5-8, and urine samples were collected at time-points 0-4 and 4-8 hrs post-dose in 8 mL scintillation vials and stored at −40° C. until analysis.\nConcentrations of Compound 1 in rat plasma were determined by LC-MS/MS after protein precipitation. Rat plasma (100 μL) was treated with 400 μL of internal standard solution (ISTD, buspirone in acetonitrile containing 1.5% acetic acid) to precipitate proteins. Samples were vortexed and then centrifuged for 10 min at approximately 4,000 rpm (3700×g) at 4° C. (Beckman centrifuge, Brea, Calif.).\nParent/metabolite analysis was conducted in the positive ion mode (ESI) by multiple reaction monitoring of parent. The mobile phases contained 10 mM ammonium acetate in water with 0.05% formic acid (solvent A) and 10 mM ammonium acetate in 50% acetonitrile/50% methanol with 0.05% formic acid (solvent B). For Compound 1, the flow rate was maintained at 1 mL/min and the total run time was 2.5 min. Analytes were separated on a YMC ODS-AQ column (2.1×150 mm; 3 μm) and eluted with a linear gradient as follows: • 1. mobile phase was held for 0.5 min at 5% B, • 2. B was increased from 5% to 95% over the next 0.2 min, • 3. B was held constant for 1.3 min at 95%, and • 4. B was returned to the initial gradient conditions.\nFor metabolite quantitation, the flow rate was maintained at 0.25 mL/min and the total run time was 60 min. Analytes were separated using a linear gradient as follows: • 1. mobile phase was held for 5 min at 5% B, • 2. B was increased from 5% to 95% over the next 45 min. • 3. B was held constant for 5 min at 95%, and • 4. B was returned to the initial gradient conditions"}, "human LPA2": {"target": "T1, human LPA2 (Homo sapiens, UniProt Q9HBW0)", "T1 construct": "endogenous in cells; host or cells: BT-20 human breast cancer cells", "T1 sequence (Q9HBW0 whole entry, the tested form may be a part)": "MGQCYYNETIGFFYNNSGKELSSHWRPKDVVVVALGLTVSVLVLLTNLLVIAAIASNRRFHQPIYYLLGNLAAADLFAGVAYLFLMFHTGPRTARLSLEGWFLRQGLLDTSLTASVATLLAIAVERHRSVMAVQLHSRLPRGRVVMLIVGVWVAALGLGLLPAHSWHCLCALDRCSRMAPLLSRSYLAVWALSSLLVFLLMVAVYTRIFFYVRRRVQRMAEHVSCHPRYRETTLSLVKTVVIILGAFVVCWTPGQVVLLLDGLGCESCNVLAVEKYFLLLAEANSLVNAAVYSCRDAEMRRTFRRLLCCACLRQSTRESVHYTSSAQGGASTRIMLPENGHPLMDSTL", "assay": "LPA2 Calcium Flux Assay", "assay_type": "cell-based", "settings": "100 nM LPA; read-out: Ca Flux IC50 LPA2", "description": "A vector containing the human LPA2 receptor cDNA was obtained from the Missouri S&T cDNA Resource Center (www.cdna.org). The full-length cDNA fragment for human LPA2 was obtained by PCR from the vector. The nucleotide sequence of the cloned human LPA2 was determined by sequencing and confirmed to be identical to the published human LPA2 sequence (NCBI accession number NM_004720). The cDNA was cloned into the pCDNA3.1 expression plasmid and transfected into B103 cells (Invitrogen Corp., USA) by seeding cells in a 96-well poly-D-lysine coated plate at 30,000-35,000 cells per well together with 0.2 μl lipofectamine 2000 and 0.2 μg of the LPA2 expression vector. Cells were cultured overnight in complete media before being assayed for LPA-induced Ca-influx.\nBT-20 human breast cancer cells are seeded at 25,000-35,000 cells per well in 150 μl complete media on Poly-D-Lysine coated black-wall clear-bottom plates. Following an overnight culture, cells are washed once with PBS then serum starved for 4-6 hours prior to the assay. […] Cells are the stimulated by the addition of 100 nM LPA and intracellular Ca^2+ measured using the Flexstation 3 (Molecular Devices). IC50s are determined using Symyx Assay Explorer analysis of drug titration curves."}, "[2]": {"assay": "Pharmacokinetics in Male Beagle Dogs", "assay_type": "in vivo", "settings": "free acid dosed orally at 5 mg/kg", "description": "The pharmacokinetics of Compound 1 and Compound 2 was assessed in male Beagle dogs.\nDosing of male Beagle dogs (n=3) was performed. Compound 1 or Compound 2 was dosed intravenously at 2 mg/kg (fasted) and orally (fasted or non-fasted) at 5 mg/kg. In fasted animals, food was withheld a minimum of 12 hours prior to dosing and then returned 4 hours post-dose. Non-fasted animals were allowed to feed 1 hour prior to dosing ad libitum. Compound 2 capsules were given by oral gavage in the fasted state. Plasma samples were collected by Perry Scientific study personnel.\nThe capsules are noted in Table 25 below. Capsules were size 0 gelatin (Capsugel, Peapack, N.J.). Tablet formulations are noted in Example 24.\nFor the clinical drug product oral solution of active agent (1.67 mg/mL), sucralose (0.5% w/w) and cherry flavor (0.5% w/w) is added to the formulation as a sweetener and taste masking agent, respectively to a 0.5% methocel aqueous solution.\nBlood samples (approximately 1 mL total blood) were taken from each dog at pre-dose, and an initial time of 5 or 15 min and then various time points up to 24 hours post-dose (10-11 samples per animal). Samples were collected on wet ice in tubes containing potassium EDTA. After each blood draw, the cannula was flushed with an equivalent volume of heparinized saline (0.1 mL at 40 units/mL). Plasma samples, prepared by centrifugation of whole blood, were stored frozen (−80° C.) prior to analysis."}}, "data": [{"smiles": "Cc1noc(-c2ccc(-c3ccc(C4(C(=O)O)CC4)cc3)cc2)c1NC(=O)O[C@H](C)c1ccccc1", "note": "[Compound 1, 1-{4′-[3-methyl-4-((R)-1-phenyl-ethoxycarbonylamino)-isoxazol-5-yl]-biphenyl-4-yl}-cyclopropanecarboxylic acid]", "values": [{"measurement": "GSH adduct in rat bile", "setting": "[1]; in vivo", "value": "neither GSH adduct is observed"}, {"measurement": "primary amine (decarboxylation) and its secondary metabolites", "setting": "[1]; plasma (rat & dog), rat bile or urine", "value": "Neither the primary amine (i.e. decarboxylation) nor its secondary metabolites (glycosylation or glucuronidation) are observed"}, {"measurement": "IC50", "setting": "human LPA2", "value": "> 1000", "unit": "nM"}, {"measurement": "exposure", "setting": "[2]", "value": "reduced exposure"}, {"measurement": "bioavailability", "setting": "[2]; male, Beagle, dog, plasma, po, 5 mg/kg, read-out: apparent oral bioavailability", "value": 19, "unit": "%"}]}]}
